Assays:
[1] = Partition coefficient, log P by UPLC method; assay type: physicochemical; details: octanol/water
[2] = Partition coefficient, log P of the compound; assay type: physicochemical; details: octanol/water

Structure (SMILES) | logP [1] | logP [2]
C=CCc1ccccc1OCC(O)CNC(C)C (stereo not drawn) [ALPRENOLOL] | 3.4 | 
CC(C)NCC(O)COc1ccc(COCCOC(C)C)cc1 (stereo not drawn) [BISOPROLOL] | 2.6 | 2.15
C=CCOc1ccccc1OCC(O)CNC(C)C (stereo not drawn) [OXPRENOLOL] | 2.6 | 2.51
CC(C)NCC(O)COc1cccc2[nH]ccc12 (stereo not drawn) [PINDOLOL] | 1.9 | 1.83
CCCCN1CCCCC1C(=O)Nc1c(C)cccc1C (stereo not drawn) [BUPIVACAINE] | 3.8 | 3.72
CC(C)NCC(O)COc1cccc2[nH]c3ccccc3c12 (stereo not drawn) [CARAZOLOL] | 3.4 | 3.73
Cc1cccc(C)c1NC(=O)C1CCCCN1C (stereo not drawn) [MEPIVACAINE] | 2.2 | 
CCCCNc1ccc(C(=O)OCCN(C)C)cc1 [TETRACAINE] |  | 3.39
CC(=O)Oc1c(C)cc(OCC(O)CNC(C)C)c(C)c1C (stereo not drawn) [METIPRANOLOL] | 3 | 2.81
CCN(CC)CCOC(=O)c1ccc(N)cc1 [PROCAINE] | 2.1 | 2.03
COCCc1ccc(OCC(O)CNC(C)C)cc1 (stereo not drawn) [METOPROLOL] | 2.2 | 
CCCCN(CCCC)CCCOC(=O)c1ccc(N)cc1 [BUTACAINE] | 4.7 | 4.26
CCCNC(C)C(=O)Nc1ccccc1C (stereo not drawn) [PRILOCAINE] | 2.3 | 2.12
CCCCOc1cc(C(=O)NCCN(CC)CC)c2ccccc2n1 [DIBUCAINE] |  | 4.19

Source: ChEMBL document CHEMBL1140736, “High-throughput log P determination by ultraperformance liquid chromatography: a convenient tool for medicinal chemists” (J Med Chem, 2008)
